In patent publication US5786344A, “Camptothecin drug combinations and methods with reduced side effects” (priority 1995, dated 1998):
Values joined by “and” are separate entries in the source; they are usually repeats but may differ in a detail not shown here. Identical values can stand only once. “Also recorded” adds a separate entry of the source.

Experiments:
[1] = human, in vivo; cited from earlier work
[2] = rats, cited from earlier work
[3] = Phase I toxicity evaluation (CALGB expanded toxicity criteria); format: in vivo, human
Experimental: […]. The detailed examples presented in the present application reflect treatment on 21 patients.
Significant gastrointestinal toxicity was first manifested at the second dose level (120 mg/m2). […] […]. […] Two of these cases were found at exploratory laparotomy to be due to progression of disease and one resolved after conservative therapy, but was likely due to progression of disease. […] In a few patients, however, high doses of ondansetron were required to achieve relief.
Toxicity assessment was done according to the CALGB expanded toxicity criteria. Patients who experienced>grade 2 diarrhea at any time while on study were begun on loperamide 4 mg p.o. followed by 2 mg p.o. after every stool up to a total dose of 16 mg/day. If loperamide was unsuccessful in controlling diarrhea, patients were begun on octreotide acetate 100-600 μg for 2-3 doses per day. Stool collections were also obtained to test for any co-existing infection. […]

[4] = tested on: tumors; conditions: preclinical and clinical tumors; cited from earlier work
[5] = molecular target: T1, p-glycoprotein (Homo sapiens, UniProt P08183); experiment: in vitro; format: binding
T1 construct: membrane vesicles from the multidrug resistant breast tumor cell line; endogenous in cells; host or cells: MCF-7/Adr (multidrug resistant human breast cancer cell line), membrane vesicles
T1 sequence (P08183 whole entry): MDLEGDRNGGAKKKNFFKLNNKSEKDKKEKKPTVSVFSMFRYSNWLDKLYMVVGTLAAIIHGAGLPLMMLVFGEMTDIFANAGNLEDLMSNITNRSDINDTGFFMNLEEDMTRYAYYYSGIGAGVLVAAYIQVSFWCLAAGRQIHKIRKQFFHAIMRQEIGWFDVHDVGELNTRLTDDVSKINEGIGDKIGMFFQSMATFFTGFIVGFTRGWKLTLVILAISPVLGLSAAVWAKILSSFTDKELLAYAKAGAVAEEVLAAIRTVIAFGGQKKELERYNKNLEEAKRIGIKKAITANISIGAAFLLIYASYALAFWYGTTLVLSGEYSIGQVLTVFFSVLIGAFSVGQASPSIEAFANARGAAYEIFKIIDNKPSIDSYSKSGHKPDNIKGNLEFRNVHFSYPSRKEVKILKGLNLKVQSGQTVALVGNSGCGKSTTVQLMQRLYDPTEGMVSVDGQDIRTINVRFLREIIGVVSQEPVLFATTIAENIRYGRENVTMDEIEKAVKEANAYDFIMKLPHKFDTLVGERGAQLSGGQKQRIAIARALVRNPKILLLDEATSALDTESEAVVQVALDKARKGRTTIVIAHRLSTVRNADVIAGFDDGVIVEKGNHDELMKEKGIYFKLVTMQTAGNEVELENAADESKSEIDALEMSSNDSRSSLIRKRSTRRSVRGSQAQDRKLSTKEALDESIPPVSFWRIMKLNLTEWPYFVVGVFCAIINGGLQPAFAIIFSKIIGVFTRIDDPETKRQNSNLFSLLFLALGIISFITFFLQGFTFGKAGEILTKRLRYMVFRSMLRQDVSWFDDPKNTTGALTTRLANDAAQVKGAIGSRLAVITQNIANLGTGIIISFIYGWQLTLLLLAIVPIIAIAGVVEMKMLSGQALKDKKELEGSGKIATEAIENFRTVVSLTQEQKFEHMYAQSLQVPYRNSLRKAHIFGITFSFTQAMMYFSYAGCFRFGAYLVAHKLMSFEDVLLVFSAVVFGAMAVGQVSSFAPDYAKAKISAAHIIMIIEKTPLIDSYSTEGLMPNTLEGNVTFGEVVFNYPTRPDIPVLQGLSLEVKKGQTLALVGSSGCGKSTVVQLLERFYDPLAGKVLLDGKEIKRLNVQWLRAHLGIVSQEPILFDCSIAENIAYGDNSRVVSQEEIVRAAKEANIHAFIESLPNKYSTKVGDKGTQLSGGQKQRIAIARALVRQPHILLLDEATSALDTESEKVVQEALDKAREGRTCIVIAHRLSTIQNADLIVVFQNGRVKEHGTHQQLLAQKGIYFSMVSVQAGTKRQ
Excerpt: FIG. 5. […]. Membrane vesicles from the multidrug resistant human breast cancer tumor cell line […] were used. […].

[6] = Phase I pharmacokinetics of CPT-11, SN-38 and SN-38G in plasma/urine after 90 min iv infusion; conditions: for "Biliary ratio" (median): AUC SN-38/SN-38G
Experimental: All patients met the standard laboratory criteria including criteria for adequate organ function. Informed, written consent was obtained from all patients prior to their first dose of CPT-11. The drug was given in 500 cc normal saline by intravenous infusion over 90 minutes on a weekly basis for four doses in a sixweek cycle. […] A second cycle was given with the same dose and schedule used during cycle 1. […] Patients who experienced dose limiting neutropenia were eligible to receive G-CSF at 5 μg/kg/day according to the criteria defined below.
To determine drug and metabolite levels, heparinized blood samples obtained on the first cycle of therapy, were centrifuged and the plasma was stored at -70° C. until analysis. CPT (camptothecin, 1 μg/ml, obtained from the National Cancer Institute, Bethesda, Md.) was used as an internal standard. One hundred μl of plasma was extracted with 2 ml of methanol, centrifuged at 2500×g for 10 min and the supernatant was evaporated to dryness. Reconstitution was done with 200 μl of methanol containing 0.1% 10M HCL (pH~2.0). For the estimation of SN-38G, plasma samples were extracted as described above. Prior to reconstitution, the samples were incubated with 1000 U of glucuronidase (Sigma Chemical Co., St. Louis, Mo.) for 2 hours at 37° C.
Analysis was done using a C18 column (μBondapak, 10 μm, 3.9×300 mm; Waters Associates, Milford, Mass.) preceded by a Novapak C18 guard column. […] Detection was monitored by a Hitachi F1050 Fluorescence detector (Hitachi Instruments Inc., Naperville, Ill.) with a λex at 375 nm and λem at 566 nm. […] SN-38G concentrations were determined as the increase in SN-38 concentrations following incubation with glucuronidase.
The plasma concentration-time data of CPT-11, SN-38 and SN-38G were analyzed by non-compartmental analysis using PCNONLIN (SCI, Lexington, Ky.). The area under the plasma concentration-time curve (AUC) from time zero (predose) to the time of the last quantifiable concentration (AUCt) was calculated by the trapezoidal rule. The AUC extrapolated to time infinity (AUCt →.infin.) was estimated by dividing the last quantifiable concentration by the terminal rate constant obtained by the log-linear regression of the terminal elimination phase. The AUC was the summation of AUCt and AUCt→.infin.. Clearance (CL) was estimated as the ratio of the dose and AUC.
The present study employed this principle to obtain an estimate of SN-38 excreted in the bile. Since glucuronidation is the major pathway of elimination of SN-38, the fraction of SN-38 not conjugated would be primarily excreted in the bile. The net biliary concentration of SN-38 would then be a resultant of its formation and elimination. This concentration was expressed as the "biliary ratio" which was the ratio of AUC of SN-38 to SN-38G. To control for individual variability in the amount of available drug, the ratio was multiplied by the AUC of CPT-11 to obtain a "biliary index" of SN-38.
The nonparametric Mann-Whitney test was employed to test for differences in pharmacokinetic outcomes between two patient groups, defined by the worst severity of diarrhea experienced in the first two cycles of CPT-11 treatment. Statistical tests were performed in the Number Cruncher Statistical System (Dr. Jerry Hintz, Kaysville, Utah). A two-sided significance level of less than or equal to 0.05 was considered statistically significant.

Structure (SMILES): CCc1c2c(nc3ccc(OC(=O)N4CCC(N5CCCCC5)CC4)cc13)-c1cc3c(c(=O)n1C2)COC(=O)[C@]3(O)CC [CPT-11, 7-ethyl-10-[4-(1-piperidino)-1-piperidino)carbonyloxycamptot hecin]
- DLT in Phase I studies in Japan and Europe/US [1]: either myelosuppression or diarrhea
- biliary radioactivity excreted over 24 h as ([2]; 24 h): 55%
- biliary radioactivity reabsorbed from the intestine [2]: approximately 18%
- myelosuppression ([3]; 100 mg/m2): not a significant toxicity
- diarrhea ([3]; 100 mg/m^2): No diarrhea was observed
- myelosuppression ([3]; 120 mg/m2): dose-limiting in one patient
- patients developing grade 3-4 diarrhea ([3]; 120 mg/m^2): 34%
- myelosuppression ([3]; 145 mg/m2, ameliorated by prophylactic G-CSF): dose-limiting in two patients
- neutropenia >grade 1 ([3]; 145 mg/m2 with G-CSF): No cases
- patients developing grade 3-4 diarrhea ([3]; 145 mg/m^2): 50%
- neutropenic fevers ([3]; 175 mg/m2, first two patients, despite prophylactic G-CSF): hospitalized with neutropenic fevers
- patients developing grade 3-4 diarrhea ([3]; 175 mg/m^2): 100%
- major toxicities ([3]; 100-175 mg/m2): myelosuppression, diarrhea, and abdominal cramping pain
- abdominal cramping ([3]; Patients 4 (120 mg/m2), 21 and 15 (145 mg/m2)): grade 3 abdominal cramping
- neutropenic fevers ([3]; Patients 13 and 16, 145 mg/m2, cycle 1): hospitalized with neutropenic fevers
- small bowel obstructions ([3]; likely due to progression of disease): Three patients developed small bowel obstructions
- nausea and vomiting ([3]; majority of patients, doses >120 mg/m2): grade 1-2 nausea and vomiting
- abdominal cramps ([3]; other patients): Four other patients had mild (grade 1) abdominal cramps
- antitumor activity [4]: significant activity in a broad spectrum of in vitro and in vivo tumor models; also recorded: antitumor activity in phase II trials
- substrate of p-glycoprotein [5]: substrates of p-glycoprotein
- inhibition at 10 µM ([5]; human, mcf-7/adr membrane vesicles): 80%
- "biliary index" (median) ([6]; 145 mg/m2, Grade 0-2 diarrhea, p=0.03): 2275 and 2276
- "biliary index" (median) ([6]; 145 mg/m2, Grade 3-4 diarrhea, p=0.03): 4747
- "Biliary ratio" (median) ([6]; 145 mg/m^2, Grade 0-2 diarrhea, n = 5): 0.27
- "biliary index" (median) ([6]; 145 mg/m^2, Grade 0-2 diarrhea, n = 5, p 0.03): 2276 ng·h/mL
- "Biliary ratio" (median) ([6]; 145 mg/m^2, Grade 3-4 diarrhea, n = 5): 0.53
- "biliary index" (median) ([6]; 145 mg/m^2, Grade 3-4 diarrhea, n = 5, p 0.03): 4747 ng·h/mL
- "biliary index" ([6]; 4 of 5 patients with grade 3-4 diarrhea, 145 mg/m^2): above 4000
- effect of pretreatment with G-CSF on pharmacokinetics ([6]; CPT-11 and its metabolites): no effect
- "biliary index" (median) ([6]; all dose levels, grade 0-2 diarrhea, n=12, p=0.0004): 2228
- "biliary index" (median) ([6]; all dose levels, grade 3-4 diarrhea, n=9, p=0.0004): 5499
- increase of AUC from 100 to 175 mg/m^2 ([6]; in vivo): 2.6 fold
- interpatient variability of AUC (percent coefficient of variation) ([6]; in vivo): 17-57%
- patients with grade 3-4 diarrhea having index estimates above 4000 ([6]; in vivo): about 90%
- "biliary index" ([6]; one patient, grade 3-4 diarrhea, c diff+): 3028
